Each structure is given as a SMILES string. Values joined by “and” are separate entries in the source; they are usually repeats but may differ in a detail not shown here. Equal entries are not always repeated.

recovery, Average measured concentration and Measured concentration data for one compound are collected here from patent publication US20260140098A1, “METHOD FOR TREATING PLASMA SAMPLE CONTAINING (7aS,2'S)-2-OXO-CLOPIDOGREL AND METHOD FOR DETERMINING THE SAME” (CHENGDU SHIBEIKANG BIOMEDICAL TECHNOLOGY CO., LTD., priority 2021, published 2026).

This series in a line: Stability of (7aS,2′S)-2-oxo-clopidogrel in plasma containing the reducing agent (Example 8). It counts as in vitro ADME, human. The settings on record: plasma with reducing agent; for Measured concentration: single replicates. Here is the method: S1. Whole blood treatment: taking 3 ml of human whole blood anticoagulated with EDTA-K2 after oral administration of (7aS,2′S)-2-oxo-clopidogrel, cooling to 4° C. on ice, then adding thereto 60 μl of tris(2-carboxyethyl) phosphine at 100 mg/ml; shaking well and then centrifuging (2-8° C., 3000 rpm for 10 min), and collecting plasma for later use.
S2. Plasma sample pre-treatment: taking 100 μl of the plasma, adding 5 μl of an internal standard working solution and 300 μl of acetonitrile respectively; after vortex mixing, centrifuging at 2-8° C. and 10,000 r/min for 10 min, and collecting the supernatant for later use.
S3. LC-MS/MS analysis: injecting 10 μl of the supernatant prepared from step S2 for determination, where the liquid chromatography conditions are: • the chromatographic column is Kinetex® 1.7 μm C18 100 A 100×2.1 mm; the column temperature is 40° C.; the mobile phase is acetonitrile-0.2% aqueous formic acid solution with a flow rate of 0.2 ml/min; and a gradient elution is carried out as specified in the table below:
ESI ion source, positive ion detection in multiple reaction monitoring mode (MRM); the quantitatively analyzed ions (7aS,2′S)-2-oxo-clopidogrel: m/z 338.100→155.000, IS: m/z 341.100→158.000, a capillary voltage of 4.0 KV, a cone voltage of 25 V, a desolvation gas temperature of 400° C. and a source temperature of 150° C. The optimal collision energy is 20 eV.
Blank plasma was taken and operated according to S1 of Example 1 to obtain a blank plasma containing the reducing agent. Subsequently, a standard series solution of (7aS,2′S)-2-oxo-clopidogrel was added to prepare quality control samples containing (7aS,2′S)-2-oxo-clopidogrel at concentrations of 0.1 and 12 ng/ml. The plasma samples were examined for stability after ice box short-term placement, stability after room temperature short-term placement, stability after freeze-thaw cycle and stability after long-term cryopreservation.
The plasma samples at different placing time points were taken to examine the stability by pre-treating the plasma samples according to the method of S2 of Example 1, followed by LC/MS/MS determination according to the method of S3.

Where [1] appears, read: placing at room temperature for 1 h, theoretical 0.1 ng/mL.
[2] abbreviates: placing at room temperature for 1 h, theoretical 12.0 ng/mL.
[3] abbreviates: placing below −60° C. for 36 days, theoretical 0.1 ng/mL.
Setting [4] is: placing in ice box for 4 h, theoretical 12.0 ng/mL.
[5] abbreviates: three cycles of freeze-thaw, theoretical 0.1 ng/mL.
The mark [6] stands for this setting: three cycles of freeze-thaw, theoretical 12.0 ng/mL.

In the case of `COC(=O)[C@H](c1ccccc1Cl)N1CC[C@@H]2SC(=O)C=C2C1` [(7aS,2′S)-2-oxo-clopidogrel, methyl(S)-2-(2-chlorophenyl)-2-((S)-2-oxo-2,6,7,7a-tetrahydrothieno[3,2-c]pyridin-5 (4H)-yl)acetate], the recovery at 1 h, 0.1 ng/mL (human, plasma containing the reducing agent (TCEP), placing at room temperature for 1 h, theoretical 0.1 ng/mL, read-out: Recovery rate) worked out at 102%. The recovery at 1 h, 12 ng/mL (human, plasma containing the reducing agent (TCEP), placing at room temperature for 1 h, theoretical 12.0 ng/mL, read-out: Recovery rate) turned out to be 99.4%. Also, the recovery at 36 days, 0.1 ng/mL (human, plasma containing the reducing agent (TCEP), placing below −60° C. for 36 days, theoretical 0.1 ng/mL, read-out: Recovery rate) stood at 96.4%. In addition, the recovery at 36 days, 12 ng/mL (human, plasma containing the reducing agent (TCEP), placing below −60° C. for 36 days, theoretical 12.0 ng/mL, read-out: Recovery rate) was 97.7%. Besides, for the setting “human, plasma containing the reducing agent (TCEP), placing in ice box for 4 h, theoretical 0.1 ng/mL, read-out: Recovery rate”, the recovery at 4 h, 0.1 ng/mL amounted to 100%. For the setting “human, plasma containing the reducing agent (TCEP), placing in ice box for 4 h, theoretical 12.0 ng/mL, read-out: Recovery rate”, the recovery at 4 h, 12 ng/mL turned out to be 98.5%. The recovery at 0.1 ng/mL (human, plasma containing the reducing agent (TCEP), three cycles of freeze-thaw, theoretical 0.1 ng/mL, read-out: Recovery rate) amounted to 100%. Also, where the note is “human, plasma containing the reducing agent (TCEP), three cycles of freeze-thaw, theoretical 12.0 ng/mL, read-out: Recovery rate”, the recovery at 12 ng/mL stood at 99.3%. The compound further came in with an Average measured concentration under setting [1] of 0.1021 ng/mL; an Average measured concentration under setting [2] of 11.9269 ng/mL; an Average measured concentration under setting [3] of 0.0964 ng/mL; an Average measured concentration under setting [4] of 11.8184 ng/mL; an Average measured concentration under setting [5] of 0.1003 ng/mL; an Average measured concentration under setting [6] of 11.9191 ng/mL. Moreover, the Measured concentration by setting is: under setting [1], 0.1013 ng/mL and 0.1027 ng/mL and 0.1020 ng/mL and 0.1040 ng/mL and 0.1007 ng/mL; under setting [2], 11.8349 ng/mL and 11.7245 ng/mL and 11.8592 ng/mL and 12.1616 ng/mL and 12.0541 ng/mL; under setting [3], 0.0980 ng/mL and 0.0940 ng/mL; (placing in ice box for 4 h, theoretical 0.1 ng/mL) 0.1013 ng/mL (2×) and 0.0960 ng/mL; under setting [4], 12.0320 ng/mL and 11.7632 ng/mL and 11.6883 ng/mL and 11.8822 ng/mL and 11.7261 ng/mL; under setting [5], 0.1007 ng/mL (2×) and 0.1013 ng/mL (2×) and 0.0973 ng/mL. The Measured concentration under setting [6] was 11.9123 ng/mL and 11.8416 ng/mL and 11.9078 ng/mL and 11.8995 ng/mL and 12.0342 ng/mL.
